From the NIST ThermoML archive (doi:10.1016/j.jct.2008.08.011)

Assay: osmotic coefficient (dimensionless); mn = molality of the nth substance listed, in mol/kg
Details: 101 kPa, Liquid, Knauer K-7000 vapour pressure osmometer

CCOS(=O)(=O)[O-].CC[n+]1cccc(C)c1 [1-ethyl-3-methylpyridinium ethylsulfate] + O
osmotic coefficient
Details	313.15 K	333.15 K
m1 = 0.1419	0.956	0.948
m1 = 0.2108	0.927	0.925
m1 = 0.3168	0.897	0.887
m1 = 0.3829	0.873	0.864
m1 = 0.5036	0.846	0.836
m1 = 0.6837	0.828	0.811
m1 = 1.034	0.813	0.784
m1 = 1.326	0.808	0.782
m1 = 1.726	0.807	0.782
m1 = 2.11	0.813	0.792
m1 = 2.501	0.826	0.802
m1 = 2.892	0.843	0.809
m1 = 3.303	0.859	0.817

CCCCCCn1cc[n+](C)c1.[Cl-] [1-hexyl-3-methylimidazolium chloride] + CCO
osmotic coefficient
Details	313.15 K	333.15 K
m1 = 0.0583	0.955	0.742
m1 = 0.0975	0.92	0.714
m1 = 0.4274	0.735	0.608
m1 = 0.6999	0.695	0.584
m1 = 1.014	0.677	0.568
m1 = 1.354	0.662	0.561
m1 = 1.597	0.659	0.558
m1 = 1.924	0.652	0.551
m1 = 2.211	0.648	0.553
m1 = 2.579	0.636	0.544
m1 = 2.859	0.635	0.544
m1 = 3.272	0.628	0.535

CCn1cc[n+](C)c1.[Cl-] [1-ethyl-3-methylimidazolium chloride] + O
osmotic coefficient
Details	313.15 K	333.15 K
m1 = 0.1847	0.97	0.936
m1 = 0.3033	0.949	0.918
m1 = 0.3896	0.941	0.896
m1 = 0.5094	0.923	0.865
m1 = 0.7105	0.895	0.847
m1 = 1.047	0.861	0.812
m1 = 1.294	0.842	0.801
m1 = 1.678	0.835	0.79
m1 = 2.113	0.831	0.784
m1 = 2.49	0.829	0.788
m1 = 2.947	0.844	0.797
m1 = 3.237	0.852	0.809
m1 = 3.722	0.885	0.831
m1 = 4.113	0.921	0.855

CCCCn1cc[n+](C)c1.[Cl-] [1-butyl-3-methylimidazolium chloride] + CCO
osmotic coefficient
Details	313.15 K	333.15 K
m1 = 0.1278	1.02	0.782
m1 = 0.3749	0.887	0.709
m1 = 0.6198	0.802	0.666
m1 = 0.7747	0.783	0.647
m1 = 1.096	0.742	0.63
m1 = 1.437	0.717	0.613
m1 = 1.904	0.685	0.589
m1 = 2.318	0.68	0.576
m1 = 2.688	0.657	0.566
m1 = 3.018	0.653	0.553
m1 = 3.348	0.66	0.55
m1 = 3.521	0.66	0.548
